# According to patent US20240245653A1, “PHARMACEUTICAL FORMULATIONS” (SPEPHARM AG, priority 2021, published 2024):
# Where two headings read alike, the source gives them in different places.
# Experiments:
# [1] = Dantrolene sodium solubility in water only solutions of HPBCD (visual inspection); format: physicochemical; conditions: for solubility: aqueous with cosolvent or surfactant or cyclodextrin; for Maximum concentration of dantrolene sodium that could be dissolved: <2 μm particle size
# Experimental: This study was performed to determine the impact of HPBCD on the solubility of dantrolene Sodium. An initial comparison of different HPBCDs was carried out using HP5 and HP7 substituted variants (Cavitron™ W7, Ashland, Inc.), which have a typical degree of substitution (average number of hydroxypropyl groups per cyclodextrin molecule) of 4.1-5.1 and 6.0-8.0 respectively. (Equivalent products, such as Kleptose® HPB (Roquette), which is a low endotoxin burden (<10 IU/g) HP5 substituted β-cyclodextrin with typical molar substitution (i.e. per anhydro glucose subunit) of 0.65 (range 0.58 to 0.68), are also available for commercial scale manufacturing.)
# Due to the larger molecular weight of the HP7 variant, more weight of excipient was required to achieve the same molar equivalent concentration compared with the HP5 variant. Overall, HP5 substituted β-cyclodextrin was preferred and it was therefore used for subsequent test formulations.
# Further analysis was performed to determine the maximum possible concentration of dantrolene sodium, at different particle sizes, in water only solutions of HP5 substituted β-cyclodextrin. Commercially available samples of dantrolene sodium having particle sizes of <2 μm and <63 μm were tested. […] Results are shown in Table 1 below; DNa denotes dantrolene sodium.
# [2] = Dantrolene sodium solubility with HPBCD and parenteral-compatible co-solvent addition (visual inspection); format: physicochemical; conditions: for Result (assessed by visual inspection): 7 Mol equivalent HP5 HPBCD solution
# Experimental: This experiment was performed to determine the effects of different parenteral-compatible alcohol- and ketone-based co-solvents on dantrolene sodium solubility, in a 7 Mol equivalent HP5 substituted HPBCD solution. The results are shown in Table 2 below; DNa denotes dantrolene sodium.
smiles,measurement,setting,value
"O=C1CN(/N=C/c2ccc(-c3ccc([N+](=O)[O-])cc3)o2)C([O-])=N1.[Na+] [DNa, dantrolene sodium]",Result (assessed by visual inspection),"[1]; DNa 4.46 mg/mL anhydrous salt equivalent (5.16 mg/mL hemiheptahydrate equivalent), particle size <2 μm, 7 molar equivalent HP5 HPBCD, water only",Complete solution
same,Result (assessed by visual inspection),"[1]; DNa 4.5 mg/mL anhydrous salt equivalent (5.33 mg/mL hemiheptahydrate equivalent), particle size <2 μm, 7 molar equivalent HP5 HPBCD, water only",Complete solution
same,Result (assessed by visual inspection),"[1]; DNa 4.5 mg/mL anhydrous salt equivalent (5.35 mg/mL hemiheptahydrate equivalent), particle size <63 μm, 7 molar equivalent HP5 HPBCD, water only",Complete solution
same,Result (assessed by visual inspection),"[1]; DNa 4.55 mg/mL anhydrous salt equivalent (5.36 mg/mL hemiheptahydrate equivalent), particle size <2 μm, 7 molar equivalent HP5 HPBCD, water only",Complete solution
same,Result (assessed by visual inspection),"[1]; DNa 4.6 mg/mL anhydrous salt equivalent (5.40 mg/mL hemiheptahydrate equivalent), particle size <2 μm, 7 molar equivalent HP5 HPBCD, water only",Slightly Hazy Solution (Incomplete)
same,Result (assessed by visual inspection),"[1]; DNa 4.65 mg/mL anhydrous salt equivalent (5.47 mg/mL hemiheptahydrate equivalent), particle size <2 μm, 7 molar equivalent HP5 HPBCD, water only",Hazy Solution (Incomplete)
same,Result (assessed by visual inspection),"[1]; DNa 4.75 mg/mL anhydrous salt equivalent (5.58 mg/mL hemiheptahydrate equivalent), particle size <2 μm, 7 molar equivalent HP5 HPBCD, water only",Hazy Solution (Incomplete)
same,Result (assessed by visual inspection),"[1]; DNa 4.75 mg/mL anhydrous salt equivalent (5.66 mg/mL hemiheptahydrate equivalent), particle size <63 μm, 7 molar equivalent HP5 HPBCD, water only",Hazy Solution (Incomplete)
same,Result (assessed by visual inspection),"[1]; DNa 5.0 mg/mL anhydrous salt equivalent (5.95 mg/mL hemiheptahydrate equivalent), particle size <2 μm, 7 molar equivalent HP5 HPBCD, water only",Hazy Solution (Incomplete)
same,solubility,"[1]; hemiheptahydrate equivalent, 9 Mol equivalents of HPBCD, HP5 variant, purified water, read-out: Solubility of dantrolene sodium",8.5 mg/mL
same,solubility,"[1]; hemiheptahydrate equivalent, 9 Mol equivalents of HPBCD, HP7 variant, purified water, read-out: Solubility of dantrolene sodium",8.5 mg/mL
same,solubility,"[1]; thermodynamic from solid, as anhydrous salt equivalent, <63 μm particle size, 7 molar equivalent HP5 HPBCD, water only, read-out: Solubility (maximum concentration of dantrolene sodium that could be dissolved)",4.5 mg/mL
same,Maximum concentration of dantrolene sodium that could be dissolved,"[1]; as anhydrous salt equivalent, 7 molar equivalent HP5 HPBCD, water only",4.55 mg/mL
same,Maximum concentration of dantrolene sodium that could be dissolved,"[1]; as hemiheptahydrate equivalent, 7 molar equivalent HP5 HPBCD, water only",5.36 mg/mL
same,Solubility (maximum concentration of dantrolene sodium that could be dissolved),"[1]; as hemiheptahydrate equivalent, <63 μm particle size, 7 molar equivalent HP5 HPBCD, water only",5.35 mg/mL
same,Result (assessed by visual inspection),"[2]; DNa 4.5 mg/mL anhydrous salt equivalent, Benzyl Alcohol 1%",Moderate Excess
same,Result (assessed by visual inspection),"[2]; DNa 4.5 mg/mL anhydrous salt equivalent, Ethanol Abs. 1%",Hazy - Small Excess
same,Result (assessed by visual inspection),"[2]; DNa 4.5 mg/mL anhydrous salt equivalent, Glycerol 5.18%",Hazy - Small Excess
same,Result (assessed by visual inspection),"[2]; DNa 4.5 mg/mL anhydrous salt equivalent, N,N-Dimethyl-formamide 2%",Hazy - Small Excess
same,Result (assessed by visual inspection),"[2]; DNa 4.5 mg/mL anhydrous salt equivalent, Polyethylene Glycol 300 (PEG-300) 5%",Hazy - Small Excess
same,Result (assessed by visual inspection),"[2]; DNa 4.5 mg/mL anhydrous salt equivalent, Polyethylene Glycol 400 (PEG-400) 5%",Hazy - Small Excess
same,Result (assessed by visual inspection),"[2]; DNa 4.5 mg/mL anhydrous salt equivalent, Propylene Glycol 5%",Moderate Excess
same,Result (assessed by visual inspection),"[2]; DNa 4.5 mg/mL anhydrous salt equivalent, Tert-Butanol 5%",Large Excess
same,Result (assessed by visual inspection),"[2]; DNa 4.5 mg/mL anhydrous salt equivalent, Tetrahydrofuran 2%",Large Excess
same,Result (assessed by visual inspection),"[2]; DNa 4.55 mg/mL anhydrous salt equivalent, N-Methyl-pyrrolidone 2, 4, 6%",Hazy - Small Excess
same,Result (assessed by visual inspection),"[2]; DNa 4.75 mg/mL anhydrous salt equivalent, Tert-Butanol 5%",Large Excess
same,Result (assessed by visual inspection),"[2]; DNa 5.0 mg/mL anhydrous salt equivalent, Benzyl Alcohol 2%",Large Excess
same,Result (assessed by visual inspection),"[2]; DNa 5.0 mg/mL anhydrous salt equivalent, Ethanol Abs. 20%",Large Excess
same,Result (assessed by visual inspection),"[2]; DNa 5.0 mg/mL anhydrous salt equivalent, Tert-Butanol 10%",Large Excess
same,Result (assessed by visual inspection),"[2]; DNa 5.0 mg/mL anhydrous salt equivalent, Tert-Butanol 20%",Large Excess
same,Effect of parenteral-compatible alcohol- or ketone-based solvents on dantrolene solubility in the presence of HPBCD,"[2]; all 15 of the solvents tested, including PEG 300 and PEG 400",reduced dantrolene solubility
